Data published in US6887867B2, “5H-2,3-benzodiazepine antagonists of excitatory amino acid receptors” (Transgenomic, Inc., priority 2000, dated 2005).
Where two headings read alike, the source gives them in different places.

Key:
[1] = tested on: global ischemia; conditions: rat common carotid arteries model; cited from earlier work
[2] = tested on: focal ischemia; conditions: rat MCAO, cited from earlier work
[3] = tested on: AMPA receptor; assay: Inhibition of Ca2+ influx into cortical cells stimulated with AMPA; type: cell-based; conditions: cortical cells stimulated with 50 μM AMPA; fluorescence readout
Experimental: Three of the antagonists disclosed herein were tested, in vitro, for inhibition of Ca^2+ influx into cortical cells stimulated with AMPA. They are 1-(4-Aminophenyl)-3,5-dihydro-4-methyl-3-acetyl-7-methoxy-5H-2,3-benzodiazepine (8) (SYM 2267), 1-(4-Aminophenyl)-3,5-dihydro-4-methyl-3-acetyl-8-methoxy-5H-2,3-benzodiazepine (21) (SYM 2268), and 1-(4-Aminophenyl)-3,5-dihydro-4-methyl-3-acetyl-7-amino-8-methoxy-5H-2,3-benzodiazepine (27) (SYM 2269), respectively. The in vitro test measures inhibition of Ca^2+ influx into cortical cells stimulated with 50 µM AMPA by the test compounds. The rationale underlying this assay is that stimulation of the cortical cells with AMPA activates AMPA receptors causing Ca^2+ influx with an increase in intracellular Ca^2+ which is then detected by measuring an increase in fluorescence. The Ca^2+ increase comes mostly from extracellular (influx of Ca^2+ through the channel into the cell), but could also come from intracellular sources (release of Ca^2+ from storage). The inhibition of the AMPA receptor function is detected by a decrease in the level of intracellular Ca^2+ and a decrease in fluorescence.

[4] = Rotorod test; type: in vivo; conditions: rats, PO
[5] = tested on: MES seizures; assay: Maximal electro shock (MES) seizure model; type: in vivo; conditions: rats
Experimental: The extent of protection by a test compound in a seizure model is tested as described by Rogawski et al. (Epilepsy Research, 15:179-184, 1993). Male NIH Swiss mice (25-30 g) are injected ip with the test drug. The mice are subjected to a 0.2 sec, 60 Hz, 50 mA electrical stimulus delivered with corneal electrodes wetted with 0.9% saline at 15-30 min post dosing. Animals failing to show tonic hind limb extension are scored as protected. Compounds may be selected which are active in this model.
SYM 2267 was evaluated for in vivo anticonvulsant activity in the maximal electro shock (MES) model in rats.

CC1=NN=C(c2ccc(N)cc2)c2cc3c(cc2C1)OCO3 [GYKI 52466]
Efficacy in global ischemia compared with NBQX [1]: as effective as the glutamate site competitive antagonist NBQX | Reduction of cortical infarct volume ([2]; dosing delayed for one hour): 48% | Reduction of cortical infarct volume ([2]; given continuously for 2 hours just after occlusion): 68%

COc1ccc2c(c1)CC(C)N(C(C)=O)N=C2c1ccc(N)cc1 (stereo not drawn) [SYM 2267, 1-(4-Aminophenyl)-3,5-dihydro-4-methyl-3-acetyl-7-methoxy-5H-2,3-benzodiazepine]
IC50 [3]: 26.1 µM | Sedative or toxic side effects in the rotorod test [4]: No sedative or toxic side effects were observed | ED50 ([5]; Rattus norvegicus, MES model, read-out: MES effective dosage (ED50)): 8.4 mg/kg | Protection from MES seizures ([5]; orally (PO), 30 mg/kg): fully protected

COc1ccc2c(c1)C(c1ccc(N)cc1)=NN(C(C)=O)C(C)C2 (stereo not drawn) [SYM 2268, 1-(4-Aminophenyl)-3,5-dihydro-4-methyl-3-acetyl-8-methoxy-5H-2,3-benzodiazepine]
IC50 [3]: 16.6 µM

COc1cc2c(cc1N)CC(C)N(C(C)=O)N=C2c1ccc(N)cc1 (stereo not drawn) [SYM 2269, 1-(4-Aminophenyl)-3,5-dihydro-4-methyl-3-acetyl-7-amino-8-methoxy-5H-2,3-benzodiazepine]
IC50 [3]: 7.3 µM
